# Values of other authors in patent publication US20110287117A1, “Adjuvant Therapy in the Treatment of Gouty Arthritis” (UNIVERSITY OF MEDICINE AND DENTISTRY OF NEW JERSEY, priority 2009, published 2011).
# Settings: in vivo
substance,measurement,value
recombinant IL-6: recombinant interleukin 6 administered in a cited study,serum SU level,lowered
same,urinary secretion of uric acid,increased
